In patent US7250413B2, “C-25 carbamate rifamycin derivatives with activity against drug-resistant microbes” (Cumbre Pharmaceuticals Inc., priority 2004, dated 2007):
Values after ≈ are worked out from the molar mass of the structure shown. Like-named read-outs stand apart in the source and are kept apart here.

Tests used:
Assay in all cases: MIC, microbroth dilution
Assay type in all cases: cell-based
[1] = tested on: Staphylococcus aureus ATCC29213
Description: (§1) Representative compounds were assayed for antimicrobial activity as follows: Minimum Inhibitory Concentrations (“MICs”) were determined by the microbroth dilution method as per NCCLS guidelines (National Committee for Clinical Laboratory Standards, 2000), except that all growth incubations were conducted at 37° C. Bacterial cultures were tested in the following bacteriological media: S. aureus, S. epidermidis, and E. coli in Cation-Adjusted Mueller-Hinton Broth, S. pneumoniae in THY Broth supplemented with 1 mg/mL catalase under 5% CO2 atmosphere, S. pyogenes in THY Broth, E. faecalis in BHI Broth, H. influenzae in BHI Broth supplemented with 0.75 μL of 1 mg/mL NAD and 150 μL of 1 mg/ml hematin per 5 mL, and M smegmatis in Middlebrook Broth plus ADC Enrichment.

[2] = tested on: Enterococcus faecalis ATCC29212
Description: as §1

[3] = tested on: Mycobacterium smegmatis ATCC700084; details: Mycolicibacterium smegmatis, ATCC700084; rifS; Middlebrook Broth plus ADC Enrichment, 37° C.; read-out: MIC
Description: as §1

[4] = rifS, Cation-Adjusted Mueller-Hinton Broth, 37° C., read-out: MIC
[5] = rifS, BHI Broth, 37° C., read-out: MIC

| Structure (SMILES) | MIC [1, 4] [mg/L] | MIC [2, 5] [mg/L] | MIC [3] [mg/L] | MIC [1] [mg/L] | MIC [2] [mg/L] |
| --- | --- | --- | --- | --- | --- |
| CNC(=O)O[C@H]1[C@H](C)[C@H](O)[C@H](C)[C@@H](O)[C@@H](C)/C=C/C=C(/C)C(=O)NC2=C(N3CCOCC3)C(=O)c3c(c(O)c(C)c4c3C(=O)[C@@](C)(O/C=C/[C@H](OC)[C@H]1C)O4)C2=O [Example 21, 25-O-Desacetyl-(carbonyl-methylamino) 3-morpholino rifamycin S] | 0.002 to 1.95 (≈ 0.00251 to 2.45 µM) | 0.25 to 62 (≈ 0.314 to 77.9 µM) | 0.063 to 31 |  |  |
| CO[C@H]1/C=C/O[C@@]2(C)Oc3c(C)c(O)c4c(c3C2=O)C(=O)C(N2CCOCC2)=C(NC(=O)/C(C)=C\C=C\[C@H](C)[C@H](O)[C@@H](C)[C@@H](O)[C@@H](C)[C@H](OC(=O)NCCCCc2ccccc2)[C@@H]1C)C4=O [Example 34, 25-O-Desacetyl-(carbonyl-4-phenyl-butylamine) 3-morpholino rifamycin S] | 0.002 to 1.95 (≈ 0.00219 to 2.13 µM) | 0.25 to 62 (≈ 0.274 to 67.8 µM) | 0.063 to 31 |  |  |
| CO[C@H]1/C=C/O[C@@]2(C)Oc3c(C)c(O)c4c(c3C2=O)C(=O)C(N2CCOCC2)=C(NC(=O)/C(C)=C\C=C\[C@H](C)[C@H](O)[C@@H](C)[C@@H](O)[C@@H](C)[C@H](OC(=O)NC2CCN(Cc3ccccc3)CC2)[C@@H]1C)C4=O [Example 33, 25-O-Desacetyl-(carbonyl-1-benzyl-piperidin-4-ylamine) 3-morpholino rifamycin S] | 0.002 to 1.95 (≈ 0.00209 to 2.04 µM) | 0.25 to 62 (≈ 0.262 to 64.9 µM) | 0.063 to 31 |  |  |
| CO[C@H]1/C=C/O[C@@]2(C)Oc3c(C)c(O)c4c(c3C2=O)C(=O)C(N2CCOCC2)=C(NC(=O)/C(C)=C\C=C\[C@H](C)[C@H](O)[C@@H](C)[C@@H](O)[C@@H](C)[C@H](OC(=O)NCCN(C)C)[C@@H]1C)C4=O [Example 30, 25-O-Desacetyl-(carbonyl-N,N-dimethylethylenediamine) 3-morpholino rifamycin S] | 0.002 to 1.95 (≈ 0.00234 to 2.29 µM) | 0.25 to 62 (≈ 0.293 to 72.7 µM) | 0.063 to 31 |  |  |
| COc1c(N2CCN(C(=O)O[C@H]3[C@H](C)[C@H](O)[C@H](C)[C@@H](O)[C@@H](C)/C=C/C=C(/C)C(=O)NC4=C(N5CCOCC5)C(=O)c5c(c(O)c(C)c6c5C(=O)[C@@](C)(O/C=C/[C@H](OC)[C@H]3C)O6)C4=O)C(C)C2)c(F)cc2c(=O)c(C(=O)O)cn(C3CC3)c12 (some centres unmarked) [Example 28, 25-O-Desacetyl-(carbonyl-1-cyclopropyl-6-fluoro-8-methoxy-7-(3-methyl-piperazin-1-yl)-4-oxo-1,4-dihydro-quinoline-3-carboxylic acid) 3-morpholino rifamycin S] | 0.002 to 1.95 (≈ 0.00175 to 1.71 µM) | 0.25 to 62 (≈ 0.219 to 54.4 µM) | 0.063 to 31 |  |  |
| CO[C@H]1/C=C/O[C@@]2(C)Oc3c(C)c(O)c4c(c3C2=O)C(=O)C(N2CCOCC2)=C(NC(=O)/C(C)=C\C=C\[C@H](C)[C@H](O)[C@@H](C)[C@@H](O)[C@@H](C)[C@H](OC(=O)NCCN2CCCC2)[C@@H]1C)C4=O [Example 32, 25-O-Desacetyl-(carbonyl-2-Pyrrolidin-1-yl-ethylamine) 3-morpholino rifamycin S] | 0.002 to 1.95 (≈ 0.00228 to 2.22 µM) | 0.25 to 62 (≈ 0.284 to 70.5 µM) | 0.063 to 31 |  |  |
| CO[C@H]1/C=C/O[C@@]2(C)Oc3c(C)c(O)c4c(c3C2=O)C(=O)C(N2CCOCC2)=C(NC(=O)/C(C)=C\C=C\[C@H](C)[C@H](O)[C@@H](C)[C@@H](O)[C@@H](C)[C@H](OC(=O)NCc2ccccc2)[C@@H]1C)C4=O [Example 15, 25-O-Desacetyl (carbonyl-benzyl) 3-morpholino rifamycin S] | 0.002 to 1.95 (≈ 0.00229 to 2.24 µM) | 0.25 to 62 (≈ 0.287 to 71.1 µM) | 0.063 to 31 |  |  |
| CO[C@H]1/C=C/O[C@@]2(C)Oc3c(C)c(O)c4c(c3C2=O)C(=O)C(N2CCOCC2)=C(NC(=O)/C(C)=C\C=C\[C@H](C)[C@H](O)[C@@H](C)[C@@H](O)[C@@H](C)[C@H](OC(=O)NCc2cccc(Cl)c2)[C@@H]1C)C4=O [Example 39, 25-O-Desacetyl-(carbonyl-3-chloro-benzylamine) 3-morpholino rifamycin S] | 0.002 to 1.95 (≈ 0.00221 to 2.15 µM) | 0.25 to 62 (≈ 0.276 to 68.4 µM) | 0.063 to 31 |  |  |
| CO[C@H]1/C=C/O[C@@]2(C)Oc3c(C)c(O)c4c(c3C2=O)C(=O)C(N2CCOCC2)=C(NC(=O)/C(C)=C\C=C\[C@H](C)[C@H](O)[C@@H](C)[C@@H](O)[C@@H](C)[C@H](OC(=O)NCc2ccc([N+](=O)[O-])cc2)[C@@H]1C)C4=O [Example 40, 25-O-Desacetyl-(carbonyl-4-nitro-benzylamine) 3-morpholino rifamycin S] | 0.002 to 1.95 (≈ 0.00218 to 2.13 µM) | 0.25 to 62 (≈ 0.273 to 67.6 µM) | 0.063 to 31 |  |  |
| COc1c(N2CCN(C3CCN(C(=O)O[C@H]4[C@H](C)[C@H](O)[C@H](C)[C@@H](O)[C@@H](C)/C=C/C=C(/C)C(=O)NC5=C(N6CCOCC6)C(=O)c6c(c(O)c(C)c7c6C(=O)[C@@](C)(O/C=C/[C@H](OC)[C@H]4C)O7)C5=O)C3)CC2)c(F)cc2c(=O)c(C(=O)O)cn(C3CC3)c12 (some centres unmarked) [Example 62] | 0.002 to 1.95 (≈ 0.00167 to 1.63 µM) | 0.25 to 62 (≈ 0.209 to 51.9 µM) | 0.063 to 31 |  |  |
| CO[C@H]1/C=C/O[C@@]2(C)Oc3c(C)c(O)c4c(c3/C2=N/O)C(=O)C(N2CCOCC2)=C(NC(=O)/C(C)=C\C=C\[C@H](C)[C@H](O)[C@@H](C)[C@@H](O)[C@@H](C)[C@H](OC(=O)NC2CCN(c3c(F)cc5c(=O)c(C(=O)O)cn(C6CC6)c5c3Cl)C2)[C@@H]1C)C4=O (some centres unmarked) [Example 68] | 0.002 to 1.95 (≈ 0.00175 to 1.7 µM) | 0.25 to 62 (≈ 0.218 to 54.1 µM) | 0.063 to 31 |  |  |
| CO[C@H]1/C=C/O[C@@]2(C)Oc3c(C)c(O)c4c(c3C2=O)C(=O)C(N2CCOCC2)=C(NC(=O)/C(C)=C\C=C\[C@H](C)[C@H](O)[C@@H](C)[C@@H](O)[C@@H](C)[C@H](OC(=O)NCCCc2ccccc2)[C@@H]1C)C4=O [Example 24, 25-O-Desacetyl-(carbonyl-3-phenylpropylamino) 3-morpholino rifamycin S] | 0.002 to 1.95 (≈ 0.00222 to 2.17 µM) | 0.25 to 62 (≈ 0.278 to 68.9 µM) | 0.063 to 31 |  |  |
| CO[C@H]1/C=C/O[C@@]2(C)Oc3c(C)c(O)c4c(c3C2=O)C(=O)C(N2CCOCC2)=C(NC(=O)/C(C)=C\C=C\[C@H](C)[C@H](O)[C@@H](C)[C@@H](O)[C@@H](C)[C@H](OC(=O)NCC#Cc2cccc(CO)c2)[C@@H]1C)C4=O [Example 44, 25-O-Desacetyl-(carbonyl-[3-(3-amino-prop-1-ynyl)-phenyl]-methanol) 3-morpholino rifamycin S] | 0.002 to 1.95 (≈ 0.00216 to 2.11 µM) | 0.25 to 62 (≈ 0.27 to 67 µM) | 0.063 to 31 |  |  |
| COc1c(N2CCC(NC3CCN(C(=O)O[C@H]4[C@H](C)[C@H](O)[C@H](C)[C@@H](O)[C@@H](C)/C=C/C=C(/C)C(=O)NC5=C(N6CCOCC6)C(=O)c6c(c(O)c(C)c7c6C(=O)[C@@](C)(O/C=C/[C@H](OC)[C@H]4C)O7)C5=O)CC3)CC2)c(F)cc2c(=O)c(C(=O)O)cn(C3CC3)c12 [Example 58] | 0.002 to 1.95 (≈ 0.00163 to 1.59 µM) | 0.25 to 62 (≈ 0.204 to 50.7 µM) | 0.063 to 31 |  |  |
| COc1ccccc1-c1cc(CNC(=O)O[C@H]2[C@H](C)[C@H](O)[C@H](C)[C@@H](O)[C@@H](C)/C=C/C=C(/C)C(=O)NC3=C(N4CCOCC4)C(=O)c4c(c(O)c(C)c5c4C(=O)[C@@](C)(O/C=C/[C@H](OC)[C@H]2C)O5)C3=O)on1 [Example 46, 25-O-Desacetyl-(carbonyl-C-[3-(2-methoxy-phenyl)-isoxazol-5-yl]-methylamino) 3-morpholino rifamycin S] | 0.002 to 1.95 (≈ 0.00206 to 2.01 µM) | 0.25 to 62 (≈ 0.258 to 64 µM) | 0.063 to 31 |  |  |
| CCN1CC2CN(C(=O)O[C@H]3[C@H](C)[C@H](O)[C@H](C)[C@@H](O)[C@@H](C)/C=C/C=C(/C)C(=O)NC4=C(N5CCOCC5)C(=O)c5c(c(O)c(C)c6c5C(=O)[C@@](C)(O/C=C/[C@H](OC)[C@H]3C)O6)C4=O)CC2C1 (some centres unmarked) [Example 29, 25-O-Desacetyl-(carbonyl-2-ethyl-octahydro-pyrrolo[3,4-c]pyrrole) 3-morpholino rifamycin S] | 0.002 to 1.95 (≈ 0.00221 to 2.15 µM) | 0.25 to 62 (≈ 0.276 to 68.5 µM) | 0.063 to 31 |  |  |
| CO[C@H]1/C=C/O[C@@]2(C)Oc3c(C)c(O)c4c(c3C2=O)C(=O)C(N2CCOCC2)=C(NC(=O)/C(C)=C\C=C\[C@H](C)[C@H](O)[C@@H](C)[C@@H](O)[C@@H](C)[C@H](OC(=O)NCCc2ccccn2)[C@@H]1C)C4=O [Example 18, 25-O-Desacetyl-(1-carbonyl-(2-pyridin-2-yl-ethylamine)) 3-morpholino rifamycin S] | 0.002 to 1.95 (≈ 0.00225 to 2.2 µM) | 0.25 to 62 (≈ 0.282 to 69.9 µM) | 0.063 to 31 |  |  |
| CO[C@H]1/C=C/O[C@@]2(C)Oc3c(C)c(O)c4c(c3C2=O)C(=O)C(N2CCOCC2)=C(NC(=O)/C(C)=C\C=C\[C@H](C)[C@@H]2OC(C)(C)O[C@@H]([C@@H](C)[C@H](OC(=O)N3CCC(=O)C3)[C@@H]1C)[C@@H]2C)C4=O [Example 61] |  |  |  | 0.002 to 1.95 (≈ 0.00225 to 2.19 µM) | 0.25 to 62 (≈ 0.281 to 69.7 µM) |
| COc1cncc(NC(=O)c2ccc(N3CCNCC3)c(C(F)(F)F)c2)c1 [Example 52, N-(5-Methoxy-pyridin-3-yl)-4-piperazin-1-yl-3-trifluoromethyl-benzamide] |  |  |  | 0.002 to 1.95 (≈ 0.00526 to 5.13 µM) | 0.25 to 62 (≈ 0.657 to 163 µM) |
| CO[C@H]1/C=C/O[C@@]2(C)Oc3c(C)c(O)c4c(c3C2=O)C(=O)C(N2CCOCC2)=C(NC(=O)/C(C)=C\C=C\[C@H](C)[C@H](O)[C@@H](C)[C@@H](O)[C@@H](C)[C@H](OC(=O)NCc2cccc3ccccc23)[C@@H]1C)C4=O [Example 23, 25-O-Desacetyl-(carbonyl-naphthalen-1-ylmethyl-amino) 3-morpholino rifamycin S] |  |  |  | 0.002 to 1.95 (≈ 0.00217 to 2.11 µM) | 0.25 to 62 (≈ 0.271 to 67.2 µM) |
| CO[C@H]1/C=C/O[C@@]2(C)Oc3c(C)c(O)c4c(c3C2=O)C(=O)C(N2CCOCC2)=C(NC(=O)/C(C)=C\C=C\[C@H](C)[C@@H]2OC(C)(C)O[C@@H]([C@@H](C)[C@H](OC(=O)N3CCC(=O)CC3)[C@@H]1C)[C@@H]2C)C4=O [Example 54, 25-O-Desacetyl-(carbonyl-N-(4-piperidone)) cyclic-21,23-(1-methylethylideneacetal) 3-morpholino rifamycin S] |  |  |  | 0.002 to 1.95 (≈ 0.00221 to 2.16 µM) | 0.25 to 62 (≈ 0.277 to 68.6 µM) |
